In patent US12478592B2, “Dosage regime with esketamine for treating neuropsychiatric or neurological conditions” (priority 2019, dated 2025):

Key:
[1] = system: human peripheral blood lymphocytes (HPBL)
Experimental: The clastogenic potential of esketamine was evaluated in the in vitro mammalian chromosome aberration test using human peripheral blood lymphocytes (HPBL) in both the absence and presence of an induced metabolic activation system (the 9000 g supernatant [S9] microsomal fraction of liver homogenate from rats exposed to Aroclor-1254).
The study was conducted in 2 phases, with a preliminary toxicity test used to determine the appropriate concentrations for the definitive chromosomal aberration assay. Water was used as a negative (vehicle) control. Toxicity (defined as ≥45% reduction in MI relative to the vehicle control) was evaluated at 9 concentrations, ranging from 0.0238 to 238 μg/ml, after exposure of HPBL to esketamine for 20 hours in the absence of S9 activation, or for 4 hours, either in the presence or absence of S9 activation, followed by a 16-hour recovery period.
The definitive chromosome aberration assay evaluated HPBL cells after exposure to esketamine for 20 hours in the absence of S9 activation, or for 4 hours, either in the presence of absence of S9 activation, followed by a 16-hour recovery. Positive controls for chromosomal aberrations in non-activated and S9-activated evaluations, respectively, consisted of mitomycin C (MMC, 0.6 and 0.3 μg/mL for the 4- and 20-hour exposures, respectively) and cyclophosphamide (CP, 2.5, 5, and 7.5 μg/mL). […] Initially, the doses selected for evaluation of chromosomal aberrations were 60, 120, and 238 μg/mL for the non-activated 4- and 20-hour treatment conditions; and 30, 60, and 200 μg/mL for the S9-activated 4-hour treatment condition.

[2] = Repeated dose 28 day study, toxicokinetics; details: for Dose normalized AUC0-inf: Day 1
Experimental: The objective of the study was to assess the potential toxicity, neurobehavioral effects, and toxicokinetics (TK) of esketamine when administered orally, via gavage, to Sprague Dawley rats for 28 days and to evaluate recovery during a 14-day drug-free period. Fifty male and 50 female rats were randomized into 4 groups (15/sex/Groups 1 and 4; 10/sex/Groups 2 and 3). Esketamine was administered via oral gavage once daily for 28 consecutive days to males at 0 (vehicle control), 6, 10 or 30 mg/kg/day and females at 0 (vehicle control), 2, 10 or 20 mg/kg/day in a dose volume of 10 mL/kg. Animals were observed until euthanized and necropsied on Day 29 (10/sex/group) or 43 (5/sex from Groups 1 and 4). Toxicity was evaluated based on mortality, clinical observations, body weights, food consumption, ophthalmology, motor activity, functional observational battery, clinical pathology (clinical chemistry, hematology, coagulation and urinalysis), organ weights, anatomic (macroscopic or microscopic) pathology. Toxicokinetic animals (3/sex/Group 1; 6/sex/Groups 2, 3, and 4) were similarly dosed and bled on Day 1 and during Week 4 for toxicokinetic analysis.

Sprague Dawley rats [3] = test: Repeated dose 28 day study, toxicity; type: in vivo; details: 28 days oral gavage; males 6, 10, 30 and females 2, 10, 20 mg/kg/day
Sprague Dawley rats [4] = test: 104 week carcinogenicity study; type: in vivo; details: after 28 days at point of departure doses and at reduced doses after 730 days
Experimental: A 104 Week carcinogenicity study of esketamine administered via oral gavage to Sprague Dawley Rats is performed to evaluate the carcinogenic potential and determine the toxicokinetics of esketamine.
The study end-points include clinical observations, body weight changes, food consumption, bioanalytical toxicokinetic analysis, and anatomic macroscopic and microscopic pathology findings.

male Sprague Dawley rats = test: 7-day forced swim test; type: in vivo; details: 15 mg/kg i.p., single acute dose
Experimental: Groups of, 6-7 week old, male Sprague Dawley rats were administered esketamine by intraperitoneal injection and their behavioral despair assessed by a forced swim test. The animals, in cohorts of 10, were administered either a single dose of 15 mg/kg esketamine, 7 daily doses of either 7.5 or 15 mg/kg esketamine or a vehicle control, and the test performed 30 minutes after dosing. Statistical evaluation was performed using an ordinary One-Way ANOVA, t Test and an Uncorrected Fisher's LSD comparisons test.

[5] = Single dose crossover study in healthy volunteers, pharmacokinetics
Description: A randomized, open-label 4-way crossover study in 16 healthy male and female subjects was held wherein said subjects were placed in a randomly assigned order and administered esketamine. Each subject was assigned to 1 of 4 treatment sequences according to a randomization code such that 4 subjects were assigned to each treatment sequence. There was a wash-out period of at least 7 days between dosing periods with doses consisting of either oral or intravenous esketamine hydrochloride. The study consisted of an eligibility screening period of 28 days, 4 study periods involving administration of a single dose of esketamine hydrochloride followed by safety assessments with blood sampling for PK purposes up to 72 hours after study drug administration, discharge at 72 hours after study drug administration and a follow-up visit 7-14 days after the last PK blood sample was taken on Day 4.

[6] = system: healthy male and female subjects; test: Single dose crossover study in healthy volunteers, adverse events; type: in vivo, human
Description: A total of 128 TEAEs (treatment-emergent adverse event) were reported by 15 of 16 (94%) subjects of which 79 TEAEs reported by 14 of 16 (88%) subjects were to be related to the study drug. Overall, a total of 14 of 128 TEAEs reported by 4 (25%) subjects were of moderate severity and 114 of 128 TEAEs reported by 15 (94%) subjects were of mild severity. […] The most frequently occurring adverse events (reported more than twice) were headache, dizziness, hypokinesia, feeling abnormal, fatigue, euphoric mood inappropriate affect, nausea and hyperhidrosis. Table 4 presents the frequency of the most frequently reported related TEAEs as a percentage of the subjects that experienced an adverse effect per treatment.

liver of Crl:CD(SD) rats = test: In vivo single cell gel electrophoresis (comet) assay, liver; details: for median % tail intensity (% TI) in liver vs vehicle control: 3 doses, p<0.001; for lower benchmark dose (BMDL50), single slide median Tail Intensity: PROAST v63.3
[7] = system: human peripheral blood lymphocytes (HPBL); remark: listed apart in the source
Experimental: The clastogenic potential of (S)-norketamine was evaluated in the in vitro mammalian chromosome aberration test using human peripheral blood lymphocytes (HPBL) in both the absence and presence of an induced metabolic activation system (the 9000 g supernatant [S9] microsomal fraction of liver homogenate from rats exposed to phenobarbital/5,6-benzoflavone).
The study was conducted in 2 phases, with a preliminary toxicity test used to determine the appropriate concentrations for the definitive chromosomal aberration assay. Water was used as a negative (vehicle) control. In both phases, the cells were treated for 3 and 21 hours in the absence of S9 mix and for 3 hours in the presence of S9 mix. The mitotic index was assessed for all cultures to determine cytotoxicity. Ten concentrations, ranging from 2.62 to 260.16 μg/mL, were evaluated in the preliminary toxicity test. […] (S)-Norketamine concentrations of 93.66, 156.10 or 260.16 μg/mL were selected for metaphase analysis.

[8] = Day 28, male rats, 6 mg/kg oral gavage once daily
[9] = Day 28, male rats, 10 mg/kg oral gavage once daily
[10] = plasma analyte after single 20 mg oral solution of esketamine hydrochloride

CO[C@@]12[C@H](COC(N)=O)C3=C(C(=O)C(C)=C(N)C3=O)N1C[C@@H]1N[C@@H]12 [MMC, mitomycin C]
structural chromosomal aberrations, % of the cells [1]: 13.3% | mean MI value ([1]; non-activated systems, positive control 0.6 and 0.3 μg/mL for 4- and 20-hour exposures): 9%

CN[C@]1(c2ccccc2Cl)CCCCC1=O [esketamine, (2S)-2-(2-Chlorophenyl)-2-(methylamino) cyclohexanone]
Cochran-Armitage test for dose response, structural aberrations [1]: positive for a dose response | Toxicity (≥45% reduction in MI relative to the vehicle control), preliminary toxicity test [1]: Toxicity was not observed at any dose | cytotoxicity (≥45% reduction in mitotic index relative to the vehicle control) ([1]; non-activated 4- and 20-hour treatment conditions): not observed at any esketamine dose | Dose normalized AUC0-inf ([2]; female rats, 2 mg/kg oral gavage): 29.0 (ng * h/ml)/(mg/kg) | Dose normalized AUC0-inf ([2]; female rats, 10 mg/kg oral gavage): 44.0 (ng * h/ml)/(mg/kg) | Dose normalized AUC0-inf ([2]; female rats, 20 mg/kg oral gavage): 49.8 (ng * h/ml)/(mg/kg) | Dose normalized AUC0-inf ([2]; male rats, 6 mg/kg oral gavage): 17.2 (ng * h/ml)/(mg/kg) | Dose normalized AUC0-inf ([2]; male rats, 10 mg/kg oral gavage): 18.1 (ng * h/ml)/(mg/kg) | Dose normalized AUC0-inf ([2]; male rats, 30 mg/kg oral gavage): 19.5 (ng * h/ml)/(mg/kg) | Dose normalized AUC0-t ([2]; Day 28, female rats, 2 mg/kg oral gavage once daily): 31.0 (ng * h/ml)/(mg/kg) | Dose normalized AUC0-t ([2]; Day 28, female rats, 10 mg/kg oral gavage once daily): 51.3 (ng * h/ml)/(mg/kg) | Dose normalized AUC0-t ([2]; Day 28, female rats, 20 mg/kg oral gavage once daily): 53.2 (ng * h/ml)/(mg/kg) | Cmax [2, 8]: 113.1 ng/mL | Dose normalized AUC0-t [2, 8]: 10.2 (ng * h/ml)/(mg/kg) | AUC0-t [2, 9]: 179 ng·h/mL | Dose normalized AUC0-t [2, 9]: 17.9 (ng * h/ml)/(mg/kg) | Dose normalized AUC0-t ([2]; Day 28, male rats, 30 mg/kg oral gavage once daily): 19.2 (ng * h/ml)/(mg/kg) | dose-normalized exposure, sex difference ([2]; after normalization for dose level differences): males had lower exposures than females | exposure Day 28 compared to Day 1 ([2]; exception: Cmax in females higher on Day 28): Exposures were similar on Day 28 compared to Day 1 | increase of exposure with dose ([2]; females, 2 to 20 mg/kg/day): slightly greater than dose-proportional | increase of exposure with dose ([2]; males, 6 to 30 mg/kg/day): generally dose-proportional | effects on clinical signs, body weights, food consumption, ophthalmology, motor activity, functional observational battery, clinical pathology or anatomic pathology (Sprague Dawley rats [3]): no esketamine-related effects | mortality (Sprague Dawley rats [3]): no mortality | genotoxic changes as shown in Examples 1 and 2 (Sprague Dawley rats [4]): not identified | effect on immobility time (male Sprague Dawley rats): 42 % of control | t1/2, Geometric mean (CV %) [5, 10]: 2.91 (37%) h | related TEAE Dizziness, percentage of subjects ([6]; 0.3 mg/kg iv): 6% | related TEAE Euphoric mood, percentage of subjects ([6]; 0.3 mg/kg iv): 19% | related TEAE Fatigue, percentage of subjects ([6]; 0.3 mg/kg iv): 6% | related TEAE Feeling abnormal, percentage of subjects ([6]; 0.3 mg/kg iv): 13% | related TEAE Headache, percentage of subjects ([6]; 0.3 mg/kg iv): 19% | related TEAE Hypokinesia, percentage of subjects ([6]; 0.3 mg/kg iv): 6% | related TEAE Inappropriate affect, percentage of subjects ([6]; 0.3 mg/kg iv): 6% | related TEAE Nausea, percentage of subjects ([6]; 0.3 mg/kg iv): 6% | related TEAE Feeling abnormal, percentage of subjects ([6]; 20 mg oral solution): 19% | related TEAE Headache, percentage of subjects ([6]; 20 mg oral solution): 19% | related TEAE Inappropriate affect, percentage of subjects ([6]; 20 mg oral solution): 6% | related TEAE Dizziness, percentage of subjects ([6]; 20 mg oral tablet): 13% | related TEAE Fatigue, percentage of subjects ([6]; 20 mg oral tablet): 7% | related TEAE Feeling abnormal, percentage of subjects ([6]; 20 mg oral tablet): 7% | related TEAE Hyperhidrosis, percentage of subjects ([6]; 20 mg oral tablet): 7% | related TEAE Dizziness, percentage of subjects ([6]; 100 mg oral tablet): 13% | related TEAE Euphoric mood, percentage of subjects ([6]; 100 mg oral tablet): 13% | related TEAE Feeling abnormal, percentage of subjects ([6]; 100 mg oral tablet): 20% | related TEAE Headache, percentage of subjects ([6]; 100 mg oral tablet): 13% | related TEAE Hyperhidrosis, percentage of subjects ([6]; 100 mg oral tablet): 7% | related TEAE Hypokinesia, percentage of subjects ([6]; 100 mg oral tablet): 13% | related TEAE Inappropriate affect, percentage of subjects ([6]; 100 mg oral tablet): 7% | related TEAE Nausea, percentage of subjects ([6]; 100 mg oral tablet): 20% | number of TEAEs related to the study drug ([6]; all treatments): 79 | total number of TEAEs ([6]; all treatments, 16 subjects): 128 | number of TEAEs of mild severity ([6]; of 128 TEAEs): 114 | number of TEAEs of moderate severity ([6]; of 128 TEAEs): 14 | macroscopic examination (liver of Crl:CD(SD) rats; after 3 doses of treatment): no test item related lesions | group mean and median % TI values vs vehicle historical control range (liver of Crl:CD(SD) rats; female rats, 25 and 50 mg/kg/day): outside of the current vehicle historical control range | median % tail intensity (% TI) in liver vs vehicle control (liver of Crl:CD(SD) rats; female rats, 25 and 50 mg/kg/day oral gavage): Statistically significant increases | lower benchmark dose (BMDL50), single slide median Tail Intensity (liver of Crl:CD(SD) rats; female rats): 9.83 mg/kg/day | DNA strand breaks in the liver (liver of Crl:CD(SD) rats; male and female rats, oral gavage): evidence of causing an increase | Hedgehog cells in the liver (liver of Crl:CD(SD) rats; male or female rats, any dose level): No Hedgehog cells were observed | group mean and median % TI values vs vehicle historical control range (liver of Crl:CD(SD) rats; male rats, 75 mg/kg/day): outside of the current vehicle historical control range | median % tail intensity (% TI) in liver vs vehicle control (liver of Crl:CD(SD) rats; male rats, 75 mg/kg/day oral gavage): Statistically significant increases | lower benchmark dose (BMDL50), single slide median Tail Intensity (liver of Crl:CD(SD) rats; male rats): 27.31 mg/kg/day

N[C@]1(c2ccccc2Cl)CCCCC1=O [(S)-norketamine, (2S)-2-(2-Chlorophenyl)-2-(amino) cyclohexanone]
AUC0-inf, Geometric mean (CV %) [5, 10]: 416.89 (19%) ng · h/ml | AUC0-t, Geometric mean (CV %) [5, 10]: 404.96 (19%) ng · h/ml | t1/2, Geometric mean (CV %) [5, 10]: 8.88 (26%) h | t1/2, Geometric mean (CV %) ([5]; plasma analyte after single 100 mg oral tablet of esketamine hydrochloride): 9.27 (25%) h | Toxicity (mitotic index), preliminary toxicity test [7]: Toxicity was not observed at any dose | clastogenicity, induction of structural and numerical chromosomal aberrations [7]: non-clastogenic

N[C@]1(c2ccccc2Cl)CCC[C@H](O)C1=O [(2S,6S)-OH-Norketamine, (2S,6S)-2-Amino-2-(2-chlorophenyl)-6-hydroxycyclohexanone]
Cmax, Geometric mean (CV %) ([5]; plasma analyte after single 20 mg oral solution of esketamine hydrochloride, 15 subjects): 46.46 (28%) ng/ml
